Each compound was assayed against T1, PTK2 (Homo sapiens, UniProt Q05397) (assay: PTK2 enzyme test, Assay 1 (DELFIA, PT60 antibody)). Conditions: 1 h pre-incubation, 1 h kinase reaction, values without *.
T1 construct: purchased Invitrogen PV3832
T1 sequence (Q05397 whole entry): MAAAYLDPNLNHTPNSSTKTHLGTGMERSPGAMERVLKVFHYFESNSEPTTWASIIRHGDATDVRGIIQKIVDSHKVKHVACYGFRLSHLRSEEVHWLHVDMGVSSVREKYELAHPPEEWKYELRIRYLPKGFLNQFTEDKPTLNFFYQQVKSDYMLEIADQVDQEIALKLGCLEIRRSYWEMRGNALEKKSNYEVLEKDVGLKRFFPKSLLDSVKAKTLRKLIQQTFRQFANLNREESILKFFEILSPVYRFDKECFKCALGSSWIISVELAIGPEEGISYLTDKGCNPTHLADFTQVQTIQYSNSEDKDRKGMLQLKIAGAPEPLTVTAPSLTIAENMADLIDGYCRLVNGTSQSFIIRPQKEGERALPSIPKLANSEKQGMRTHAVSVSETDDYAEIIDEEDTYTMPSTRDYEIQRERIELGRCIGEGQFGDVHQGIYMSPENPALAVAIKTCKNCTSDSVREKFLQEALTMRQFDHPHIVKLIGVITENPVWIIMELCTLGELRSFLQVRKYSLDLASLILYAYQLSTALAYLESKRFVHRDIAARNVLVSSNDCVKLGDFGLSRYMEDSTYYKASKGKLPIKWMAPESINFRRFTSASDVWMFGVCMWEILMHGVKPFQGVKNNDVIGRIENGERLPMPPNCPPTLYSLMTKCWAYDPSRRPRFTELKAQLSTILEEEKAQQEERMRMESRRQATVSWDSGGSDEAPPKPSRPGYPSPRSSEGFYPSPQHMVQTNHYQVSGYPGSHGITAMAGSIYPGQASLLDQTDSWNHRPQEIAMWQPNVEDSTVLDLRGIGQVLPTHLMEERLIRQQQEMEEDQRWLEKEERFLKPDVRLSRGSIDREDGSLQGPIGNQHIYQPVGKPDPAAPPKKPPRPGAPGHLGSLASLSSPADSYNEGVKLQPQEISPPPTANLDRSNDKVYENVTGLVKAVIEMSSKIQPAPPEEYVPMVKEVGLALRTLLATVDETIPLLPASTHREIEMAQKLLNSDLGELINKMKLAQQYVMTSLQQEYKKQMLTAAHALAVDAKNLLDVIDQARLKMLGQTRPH
Assay type: biochemical
Method: This test uses active PTK2 enzyme (Invitrogen Code PV3832) and poly-Glu-Tyr (4:1, Sigma P-0275) as the kinase substrate. The kinase activity is detected through the phosphorylation of the substrate in a DELFIA™ assay. The phosphorylated substrate is detected with the europium-labelled phosphotyrosine antibody PT60 (Perkin Elmer, No.: AD00400).
In order to determine concentration-activity curves with PTK2-inhibitors the compounds are serially diluted in 10% DMSO/H20 and 10 μL of each dilution are placed in each well of a 96-well microtitre plate (clear plate with a U-shaped base, Greiner No. 650101) (the inhibitors are tested in duplicates) and mixed with 10 μL/well of PTK2 kinase (0.01 μg/well). PTK2 kinase has been correspondingly diluted beforehand with kinase dilution buffer (20 mM TRIS/HCl pH 7.5, 0.1 mM EDTA, 0.1 mM EGTA, 0.286 mM sodium orthovanadate, 10% glycerol with the addition of freshly prepared BSA (fraction V, 1 mg/mL) and DTT (1 mM)). The test compound and the PTK2 kinase are pre-incubated for 1 h at RT and shaken at 500 revolutions per min. The reaction is started by the addition of 10 μL/well poly (Glu,Tyr) substrate (25 μg/well poly (Glu, Tyr), 0.05 μg/well biotinylated poly (Glu,Tyr) dissolved in 250 mM TRIS/HCl pH 7.5, 9 mM DTT)—the final concentration of DMSO is 2%. Then 20 μL of ATP Mix (30 mM TRIS/HCl pH 7.5, 0.02% Brij, 0.2 mM sodium orthovanadate, 10 mM magnesium acetate, 0.1 mM EGTA, 1× phosphatase inhibitor cocktail 1 (Sigma, No.: P2850), 50 μM ATP (Sigma, No.: A3377; 15 mM stock solution)) are added. After 1 h of kinase reaction (the plates are shaken at 500 rpm), the reaction is stopped by the addition of 12 μL/well 100 mM EDTA, pH 8.0 and shaken for a further 5 min at RT (500 rpm). 55 μL of the reaction mixture are transferred into a streptavidin plate (Strepta Well High Bind (transparent, 96-well) made by Roche, No.: 11989685001) and incubated for 1 h at RT (shaking at 500 rpm). Then the microtitre plate is washed three times with 200 μL/well D-PBS (Invitrogen, No. 14190). 100 μL of a solution containing DELFIA Eu-N1 Anti-Phosphotyrosine PT60 antibody (Perkin Elmer, No.: AD0040, diluted 1:2000 in DELFIA test buffer (Perkin Elmer, No.: 1244-111)) is then added and the mixture is incubated for 1 h at RT (shaking at 500 rpm). Then the plate is washed three times with 200 μL/well DELFIA washing buffer (Perkin Elmer, No.: 1244-114), 200 μL/well strengthening solution (Perkin Elmer, No.: 1244-105) are added and the mixture is incubated for 10 min at RT (shaking at 300 rpm).
The time-delayed europium fluorescence is then measured in a microtitre plate reader (VICTOR^3, Perkin Elmer). […] Wells that contain test buffer instead of enzyme are used as a control of the background kinase activity.
The IC50 values are determined from analyses of the concentration activity by iterative calculation with the aid of a sigmoid curve analysis algorithm (FIFTY, based on GraphPAD Prism Version 3.03) with a variable Hill coefficient.
In the case of COc1cc(C(=O)NN2CCN(C)CC2)c(F)cc1Nc1ncc(Cl)c(O[C@@H]2CCC[C@H]2N(C)S(C)(=O)=O)n1 [Example 88, 4-{5-chloro-4-[(1R,2R)-2-(methanesulphonyl-methyl-amino)-cyclopentyloxy]-pyrimidin-2-ylamino}-2-fluoro-5-methoxy-N-(4-methyl-piperazin-1-yl)-benzamide], the IC50 is reported as 0.37 nM. In the case of COc1cc(C(=O)NN2CCN(C)CC2)c(F)cc1Nc1ncc(C(F)(F)F)c(O[C@@H]2CCC[C@H]2NS(C)(=O)=O)n1 [Example 98], the IC50 is reported as 4 nM. For COc1cc(C(=O)NCCN(C)C)c(F)cc1Nc1ncc(C(F)(F)F)c(O[C@@H]2Cc3ccccc3[C@H]2N(C)S(C)(=O)=O)n1 [Example 2], the IC50 was 5 nM. In the case of COc1cc(C(=O)NCCN(C)C)c(F)cc1Nc1ncc(Cl)c(O[C@@H]2Cc3ccccc3[C@H]2N(C)S(C)(=O)=O)n1 [Example 53], the IC50 is reported as 4 nM. COc1cc(C(=O)NC2CCN(C)CC2)c(F)cc1Nc1ncc(C(F)(F)F)c(O[C@@H]2CCC[C@H]2NS(C)(=O)=O)n1 [Example 28, 2-fluoro-4-[4-((1R,2R)-2-methanesulphonylamino-cyclopentyloxy)-5-trifluoromethyl-pyrimidin-2-ylamino]-5-methoxy-N-(1-methyl-piperidin-4-yl)-benzamide] was tested, and the IC50 was 2 nM. COc1cc(C(=O)NC2CCN(C)CC2)ccc1Nc1ncc(C(F)(F)F)c(O[C@@H]2Cc3ccccc3[C@H]2N(C)S(C)(=O)=O)n1 [Example 27, 4-{4-[(1R,2R)-1-(methanesulphonyl-methyl-amino)-indan-2-yloxy]-5-trifluoromethyl-pyrimidin-2-ylamino}-3-methoxy-N-(1-methyl-piperidin-4-yl)-benzamide] showed an IC50 of 1 nM. COc1cc(C(=O)NC[C@H](O)CO)c(Cl)cc1Nc1ncc(Cl)c(O[C@@H]2Cc3ccccc3[C@H]2N(C)S(C)(=O)=O)n1 [Example 36] showed an IC50 of 3 nM. COc1cc(C(=O)NC2CCN(C)CC2)ccc1Nc1ncc(C(F)(F)F)c(O[C@H]2Cc3ccccc3[C@H]2N(C)S(C)(=O)=O)n1 [Example 70] showed an IC50 of 238 nM. Compound COc1cc(C(=O)N[C@H]2CC[C@H](O)CC2)ccc1Nc1ncc(C(F)(F)F)c(O[C@@H]2Cc3ccccc3[C@H]2N(C)S(C)(=O)=O)n1 [Example 22] has an IC50 of 8 nM. For COc1cc(C(=O)NC2CCN(C)CC2)c(F)cc1Nc1ncc(Cl)c(O[C@@H]2CCC[C@H]2N(C)S(C)(=O)=O)n1 [Example 85, 4-{5-chloro-4-[(1R,2R)-2-(methanesulphonyl-methyl-amino)-cyclopentyloxy]-pyrimidin-2-ylamino}-2-fluoro-5-methoxy-N-(1-methyl-piperidin-4-yl)-benzamide], the IC50 was 0.37 nM. Work on COc1cc(C(=O)NC2CCN(C)CC2)c(F)cc1Nc1ncc(C(F)(F)F)c(O[C@@H]2Cc3ccccc3[C@H]2N(C)S(C)(=O)=O)n1 [Example 25, 2-fluoro-4-{4-[(1R,2R)-1-(methanesulphonyl-methyl-amino)-indan-2-yloxy]-5-trifluoromethyl-pyrimidin-2-ylamino}-5-methoxy-N-(1-methyl-piperidin-4-yl)-benzamide] yielded an IC50 of 2 nM. With COc1cc(C(=O)NCCCN(C)C)c(F)cc1Nc1ncc(C(F)(F)F)c(O[C@@H]2Cc3ccccc3[C@H]2N(C)S(C)(=O)=O)n1 [Example 8] the IC50 was 4 nM. COc1cc(C(=O)NCCN(C)C)c(Cl)cc1Nc1ncc(C(F)(F)F)c(O[C@@H]2CCCC[C@H]2N(C)S(C)(=O)=O)n1 [Example 109] was tested, and the IC50 was 0.35 nM. COc1ccc(C(=O)NCCN(C)C)cc1Nc1ncc(C(F)(F)F)c(O[C@@H]2Cc3ccccc3[C@H]2N(C)S(C)(=O)=O)n1 [Example 81] gave an IC50 of 0.31 nM. COc1cc(NC(C)=O)ccc1Nc1ncc(C(F)(F)F)c(O[C@@H]2Cc3ccccc3[C@H]2N(C)S(C)(=O)=O)n1 [Example 94] gave an IC50 of 5 nM. Work on COc1cc(C(=O)NC2CCN(C)CC2)c(F)cc1Nc1ncc(C(F)(F)F)c(O[C@@H]2CCC[C@H]2NS(=O)(=O)C2CC2)n1 [Example 46] yielded an IC50 of 34 nM. For COc1cc(C(=O)NC2CCN(C)CC2)c(F)cc1Nc1ncc(C(F)(F)F)c(O[C@@H]2CCC[C@H]2NS(=O)(=O)CCl)n1 [Example 45], the IC50 was 5 nM. Compound COc1cc(C(=O)NC2CCN(C)CC2)c(F)cc1Nc1ncc(C(F)(F)F)c(O[C@@H]2CCC[C@H]2N(C)S(C)(=O)=O)n1 [Example 103, 2-fluoro-4-{4-[(1R,2R)-2-(methanesulphonyl-methyl-amino)-cyclopentyloxy]-5-trifluoromethyl-pyrimidin-2-ylamino}-5-methoxy-N-(1-methyl-piperidin-4-yl)-benzamide] has an IC50 of 0.28 nM. For COc1cc(C(=O)NN2CCN(C)CC2)c(Cl)cc1Nc1ncc(Cl)c(O[C@@H]2Cc3ccccc3[C@H]2N(C)S(C)(=O)=O)n1 [Example 63], the IC50 was 3 nM. In the case of COc1cc(C(=O)NCCN(C)C)ccc1Nc1ncc(C(F)(F)F)c(O[C@@H]2Cc3ccccc3[C@H]2N(C)S(C)(=O)=O)n1 [Example 14], the IC50 is reported as 3 nM. COc1cc(C(=O)NCCN(C)C)ccc1Nc1ncc(C(F)(F)F)c(O[C@@H]2CCCC[C@H]2N(C)S(C)(=O)=O)n1 [Example 111] showed an IC50 of 0.36 nM. COc1cc(C(=O)NN2CCN(C)CC2)ccc1Nc1ncc(C(F)(F)F)c(O[C@@H]2CCC[C@H]2N(C)S(C)(=O)=O)n1 [Example 89] gave an IC50 of 0.33 nM. For COc1cc(C(=O)NCCN2CCN(C)CC2)ccc1Nc1ncc(C(F)(F)F)c(O[C@@H]2Cc3ccccc3[C@H]2N(C)S(C)(=O)=O)n1 [Example 16], the IC50 was 4 nM. With COc1cc(C(=O)NC2CCN(C)CC2)c(Cl)cc1Nc1ncc(C(F)(F)F)c(O[C@@H]2CCC[C@H]2N(C)S(C)(=O)=O)n1 [Example 102, 2-chloro-4-{4-[(1R,2R)-2-(methanesulphonyl-methyl-amino)-cyclopentyloxy]-5-trifluoromethyl-pyrimidin-2-ylamino}-5-methoxy-N-(1-methyl-piperidin-4-yl)-benzamide] the IC50 was 0.61 nM. Work on COc1cc(C(=O)NCC2CC2)c(F)cc1Nc1ncc(Cl)c(O[C@@H]2Cc3ccccc3[C@H]2N(C)S(C)(=O)=O)n1 [Example 66] yielded an IC50 of 16 nM. In the case of CS(=O)(=O)N[C@@H]1CCC[C@H]1Oc1nc(Nc2ccc3ncsc3c2)ncc1C(F)(F)F [Example 97], the IC50 is reported as 2 nM. COc1cc(C(=O)NCCN2CCN(C)CC2)c(Cl)cc1Nc1ncc(Cl)c(O[C@@H]2Cc3ccccc3[C@H]2N(C)S(C)(=O)=O)n1 [Example 34] gave an IC50 of 2 nM. For COc1cc(C(=O)NC2CCN(C)CC2)c(Cl)cc1Nc1ncc(C(F)(F)F)c(O[C@@H]2Cc3ccccc3[C@H]2NS(C)(=O)=O)n1 [Example 87], the IC50 was 0.28 nM. In the case of COc1cc(C(=O)NN2CCN(C)CC2)c(Cl)cc1Nc1ncc(C(F)(F)F)c(O[C@@H]2CCC[C@H]2N(C)S(C)(=O)=O)n1 [Example 100, 2-chloro-4-{4-[(1R,2R)-2-(methanesulphonyl-methyl-amino)-cyclopentyloxy]-5-trifluoromethyl-pyrimidin-2-ylamino}-5-methoxy-N-(4-methyl-piperazin-1-yl)-benzamide], the IC50 is reported as 0.26 nM. COc1cc(C(=O)NC2CCN(C)CC2)c(F)cc1Nc1ncc(C(F)(F)F)c(O[C@@H]2CCCC[C@H]2N(C)S(C)(=O)=O)n1 [Example 75, 2-fluoro-4-{4-[(1R,2R)-2-(methanesulphonyl-methyl-amino)-cyclohexyloxy]-5-trifluoromethyl-pyrimidin-2-ylamino}-5-methoxy-N-(1-methyl-piperidin-4-yl)-benzamide] was tested, and the IC50 was 0.31 nM. CNC(=O)c1cc(OC)c(Nc2ncc(Cl)c(O[C@@H]3Cc4ccccc4[C@H]3N(C)S(C)(=O)=O)n2)cc1F [Example 67] showed an IC50 of 16 nM. COc1cc(C(=O)NC2CCN(C)CC2)ccc1Nc1ncc(C(F)(F)F)c(O[C@@H]2Cc3ccccc3[C@@H]2NC(C)=O)n1 [Example 72] showed an IC50 of 174 nM. Work on CNC(=O)c1ccc(Nc2ncc(C(F)(F)F)c(O[C@@H]3Cc4ccccc4[C@H]3N(C)S(C)(=O)=O)n2)c(OC)c1 [Example 17] yielded an IC50 of 13 nM. COc1cc(C(=O)N[C@H]2CC[C@H](O)CC2)c(F)cc1Nc1ncc(C(F)(F)F)c(O[C@@H]2Cc3ccccc3[C@H]2N(C)S(C)(=O)=O)n1 [Example 10] showed an IC50 of 7 nM.

From patent US8466155B2, “Pyrimidines” (Boehringer Ingelheim International GmbH, priority 2009, dated 2013)
